Reference: patent publication US9186390B2, “Methods and uses of TIE2 binding and/or activating agents” (Sunnybrook Health Sciences Center, priority 2010, dated 2015)
Entries after “also recorded” stand apart in the source; their conditions may differ.

Experiments:
[1] = target: T1, Tie2 receptor (Mus musculus, UniProt Q02858); assay: Tie2 activation in vivo (Tie2 immunoprecipitation from lung lysates, pY Tie2 western blot); set-up: species or system CD1 mice; conditions: for time points at which activation of Tie2 (pY Tie2) was evident: pooled lung lysates of three mice
T1 construct: from tissue; host or cells: lung of CD1 mice (in vivo dosing, lung homogenate)
Description: The following commercially available antibodies were used: monoclonal anti-Tie2 (Phaminogen), polyclonal anti-Tie2 (Santa Cruz Biotechnology) and monoclonal anti-pY (clone 4G10, Upstate Biotechnology). Lung lysates were prepared and immunoprecipitated in full RIPA buffer (50 mM Tris-HCl, pH 7.4, 150 mM NaCl, 1 mM PMSF, 1 mM EDTA, 5 μg/ml Aprotinin 5 μg/ml Leupeptin, 1% Triton x-100, 1% Sodium deoxycholate, 0.1% SDS). Proteins were resolved in 10% PAGE according to Laemlli and transferred to PVDF membrane for subsequent antibody probing.
Purified Vasculotide was examined for its ability to activate the Tie2 receptor tyrosine kinase in CD1 mice (FIG. 1A). Three mice per group were injected intraperitoneally (IP) with either Vasculotide (500 ng-12.5 μg) or vehicle (PBS) control. After one hour, mice were sacrificed and lung homogenates were prepared for immunoblot analysis. […] This effect is particularly evident when total protein loading is accounted for (see pan Tie2, lower panel). While this may seem somewhat paradoxical, this phenomenon has also been reported by others while investigating the effect of Ang1 on Tie2 activation (Brkovic et al. (2007) J. Leukoc. Biol. 81(4), 1093-1101), Sturn et al. (2005) Microcirculation 12(5), 393-403, Murdoch et al. (2007) J Immunol 178(11), 7405-7411, van der Geer et al. (1994) Ann. Rev. Cell Biol. 10, 251-337, Gruber et al. (1995) Blood 86(7), 2488-2493, Maliba et al. (2008) J. Leukoc. Biol. 83(2), 352-360, and Van Slyke et al. (2009) Tissue Eng. Part A 15(6), 1269-1280).
To assess the duration of Tie2 activation following Vasculotide administration, three mice per time point were injected with 2 μg intraperitoneally (I.P.) or by gavage (P.O.). Lung lysates were prepared from each of the mice at the indicated times following initial dosing (FIG. 1B). Equal quantities of protein from each group were pooled and immunoprecipitated for Tie2 to establish an average Tie2 activation for each group. Activation of Tie2 (see pY Tie2, upper panels) was evident at time points ranging from 24-72 hours in the I.P. injected mice. By 96 hours post injection, the Tie2 receptor phosphorylation had returned to basal (PBS stimulated) levels.

[2] = system: chronic asthma mice; assay: Chronic asthma model (ovalbumin sensitization, nebulized challenge, d42 / d62); type: in vivo, Balb/c mice
Description: (Chronic asthma model) Seven week old female Balb/c mice were injected intraperitoneally (IP) with 20 μg of chicken ovalbumin (OVA) absorbed with 1 mg aluminum hydroxide, an adjuvant known to promote the development of a Th2 response by the immune system, on day 0 (denoted by first day injection) and day 7. Full body inhaled exposure to OVA was initiated at day 21. Briefly, these treatments utilized an InExpose full body aerosol chamber (Scireq, Montreal, Canada) where a 1% OVA solution, suspended in PBS, pH 7.45, was nebulized at 0.2 mL/min with a filtered room air flow rate of 2400 mL/min for a total period of 30 minutes, 3 times a week for either 42 (FIG. 13A) or 62 days (FIG. 13B). (Acute asthma model) Seven week old female Balb/c mice were injected intraperitoneally with 50 μg of chicken OVA absorbed with 1 mg aluminum hydroxide on day 0 (denoted by first day injection) and day 7. Aqueous OVA ([…] in PBS) was delivered intranasally daily from day 20 to day 24 (FIG. 2), Vasculotide or saline vehicle (control, PBS) was delivered to the mice via IP injections.
Blood was collected from the left ventricle of anaesthetized mice into heparinized 1 cc syringes. Following collection, blood was placed into Li-heparin microtubes. Subsequently, the tubes were centrifuged at 3000 RPM for 15 minutes at 4° C. Plasma was collected from the top of the samples and frozen at −80° C. for later analysis. The remaining buffy coat and red blood cells were lysed then fixed in 1× lyse/fix buffer (BD Biosciences, Mississauga, Canada) according to manufacturer's instructions.
Twenty-four hours after last aerosol exposure and immediately following exsanguinations, tissue was dissected from neck to expose trachea. A small lateral incision was made in the trachea to allow passage of 23 gauge lavage catheter into trachea. The catheter, attached to a 3 cc syringe containing warmed Hanks buffer, was carefully passed into the lumen of the trachea. A suture was secured around the trachea with a knot to secure the catheter in place. Buffer (1 cc) was injected slowly into the lungs and fully aspirated three times. The volume of recovered buffer was recorded for each animal to facilitate calculation of BAL infiltrate.
Analysis of plasma samples generated for the asthma study was the same as that outlined for the atopic dermatitis study with one small modification. Plasma from mice used in the asthma study was diluted 1:4 instead of 1:8 for the atopic dermatitis samples.
(BAL analysis) Collected BAL fluid was centrifuged at 1000 RPM for 10 minutes at 4° C. BAL fluid was removed and collected for subsequent CBA analysis. The BAL cell pellet was lysed/fixed in 1× lyse/fix buffer according to manufacturer's instructions (BD Biosciences, Mississauga, Canada). The total number of cells contained in each sample was determined by flow cytometry using flow-set beads (Count Bright Beads, Invitrogen), to facilitate sample volume and cell count calculations. A total of 7000 beads were counted for each sample. Flow cytometry analysis was gated on FSC/SSC to eliminate debris and dead cells. Differential cell count analysis was also performed by FACS where surface marker antibodies were used as follows: eosinophils (SSC^hi FITCmed Ige^med), neutrophils (SSC^med FITC^hi Ige^med), monocytes (SSC^med CD11b^+ CD115^+) and lymphocytes (SSC^lo and CD4^+ or CD8^+). In addition to monocyte markers (SSC^med CD11b^+ CD115^+), these cell populations were further characterized using antibodies specific for Tie2, TLR4, and Ly6C. Ly6C^low and Ly6C^high further define monocytes as classical, resident monocytes or inflammatory monocytes, respectively. Identified neutrophils were further labelled with antibodies to Tie2 and TLR4. All cell suspensions were incubated with purified anti-CD16/CD32 mAb (BD Biosciences, Mississauga, ON, Canada) to block non-specific background caused by Fc receptors, followed by incubation with the specific antibodies. […]

[3] = chronic asthma, sustained effect

T1 sequence (Q02858 23-1122): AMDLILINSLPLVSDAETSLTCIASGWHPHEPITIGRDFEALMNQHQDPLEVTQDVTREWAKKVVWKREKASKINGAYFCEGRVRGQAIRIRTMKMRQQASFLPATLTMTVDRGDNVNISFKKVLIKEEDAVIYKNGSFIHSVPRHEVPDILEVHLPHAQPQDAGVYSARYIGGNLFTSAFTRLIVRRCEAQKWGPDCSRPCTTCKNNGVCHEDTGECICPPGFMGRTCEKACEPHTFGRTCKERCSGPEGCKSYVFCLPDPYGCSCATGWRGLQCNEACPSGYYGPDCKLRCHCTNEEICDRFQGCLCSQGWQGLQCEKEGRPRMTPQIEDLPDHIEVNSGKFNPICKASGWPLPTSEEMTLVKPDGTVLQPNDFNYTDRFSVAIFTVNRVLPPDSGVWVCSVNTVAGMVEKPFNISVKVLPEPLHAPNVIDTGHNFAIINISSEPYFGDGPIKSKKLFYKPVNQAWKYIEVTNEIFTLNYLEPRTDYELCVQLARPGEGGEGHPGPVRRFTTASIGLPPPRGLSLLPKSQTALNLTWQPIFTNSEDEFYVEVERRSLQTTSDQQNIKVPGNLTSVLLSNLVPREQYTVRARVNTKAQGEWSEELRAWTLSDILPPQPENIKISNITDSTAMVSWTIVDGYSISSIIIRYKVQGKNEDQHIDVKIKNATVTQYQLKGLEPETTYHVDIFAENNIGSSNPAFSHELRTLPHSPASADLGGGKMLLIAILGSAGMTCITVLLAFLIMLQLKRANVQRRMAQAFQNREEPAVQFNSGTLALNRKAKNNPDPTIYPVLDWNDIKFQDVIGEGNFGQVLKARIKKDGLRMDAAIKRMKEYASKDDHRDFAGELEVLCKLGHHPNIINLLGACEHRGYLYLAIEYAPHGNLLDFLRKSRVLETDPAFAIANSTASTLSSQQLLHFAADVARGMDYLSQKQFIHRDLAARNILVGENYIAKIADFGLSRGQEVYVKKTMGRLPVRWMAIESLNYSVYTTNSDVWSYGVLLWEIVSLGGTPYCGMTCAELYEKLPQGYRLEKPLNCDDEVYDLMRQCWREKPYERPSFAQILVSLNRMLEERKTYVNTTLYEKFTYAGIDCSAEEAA

time points at which activation of Tie2 (pY Tie2) was evident ([1]; 2 μg I.P.): 24-72 hours | time points at which activation of Tie2 (pY Tie2) was evident ([1]; 2 μg I.P., listed as Vasc-PEG): at least 72 hours | time by which Tie2 receptor phosphorylation had returned to basal (PBS stimulated) levels ([1]; 2 μg I.P., post injection): 96 h | Tie2 phosphorylation after gavage (oral availability) ([1]; 2 μg P.O., two hours post gavage): did not yield increased activation | Tie2 receptor-activating activity at higher doses ([1]; I.P. doses above 500 ng up to 12.5 μg, 1 hour): reduced receptor-activating activity | dose that activated Tie2 optimally (pY Tie2) ([1]; I.P., 1 hour in circulation, lung homogenates, doses 500 ng-12.5 μg): 500 ng/25-30 g mouse
Substance: Vasculotide: Modified T7 peptide (CHHHRHSF, SEQ ID NO:2) conjugated to 10 kDa tetrameric polyethylene glycol-maleimide; Tie2 binding peptide mimetic
Tie2 levels in BAL neutrophils ([2]; asthmatic mice, flow cytometry): unchanged | BAL neutrophil count ([2]; chronic asthma, d42): unchanged | BAL eosinophil numbers ([2]; chronic asthma, d42 and d62): significantly decreased; also recorded: statistical reduction | BAL monocyte infiltration / absolute number of monocytes ([2]; chronic asthma, d42 and d62): significantly decreased; also recorded: statistical reduction | inflammatory monocytes (Ly6C+) in BAL ([2]; chronic asthma, d42 and d62): decreased | absolute number of peripheral blood mononuclear cells ([2]; chronic asthma, d42 or d62, did not reach significance): clear trend toward a reduction | BAL neutrophil count ([2]; chronic asthma, d62): slight increase | BAL neutrophil count ([2]; chronic asthma, d62, listed as Vsaculotide): very small increase | BAL lymphocytes ([2]; chronic asthma, day 42 and day 62): statistical reduction | plasma IL-5 (cytometric bead array) [2, 3]: decreasing | plasma RANTES (cytometric bead array) [2, 3]: decreasing | plasma TNF (cytometric bead array) [2, 3]: decreasing | reduction of total absolute BAL counts ([2]; d42 chronic asthma model, systemic (IP) treatment, flow cytometry): 45% | TLR4 expression on BAL eosinophils (mean fluorescence intensity) ([2]; d42 chronic asthma, PBS 166): 758 MFI | cell surface level of Tie2 on BAL eosinophils (mean fluorescence intensity) ([2]; d42 chronic asthma, PBS 566): 205 MFI | decrease in lung collagen deposition (Masson's trichrome, % blue positive area) ([2]; d62 chronic asthma, vs PBS): 4 fold | TLR4 expression on BAL eosinophils (mean fluorescence intensity) ([2]; d62 chronic asthma, PBS 118): 132 MFI
